Reference: PubChem BioAssay (NCI)
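Compound exposure: 48 hours, 5 concentrations, 96-well plates. GI50 marks 50% less growth. TGI denotes the concentration required for complete inhibition of growth.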

Key:
Assay in all cases: DTP human tumour cell line panel, 48 h
[1] = system: A498 renal
[2] = system: CAKI-1 renal
[3] = system: HOP-62 NSCLC
[4] = system: K-562 leukemia
[5] = system: MALME-3M melanoma
[6] = system: SF-539 CNS
[7] = system: SN12C renal
[8] = system: U251 CNS
[9] = system: ACHN renal
[10] = system: OVCAR-5 ovarian

SMILES	TGI [1] [µM]	TGI [2] [µM]	TGI [3] [µM]	TGI [4] [µM]	TGI [5] [µM]	TGI [6] [µM]	TGI [7] [µM]	TGI [8] [µM]	GI50 [1] [nM]	GI50 [9] [µM]	TGI [9] [µM]	GI50 [2] [nM]	GI50 [3] [µM]	GI50 [4] [µM]	GI50 [5] [µM]	GI50 [10] [µM]	TGI [10] [µM]	GI50 [6] [nM]	GI50 [7] [µM]	GI50 [8] [µM]
CON1C(=O)C2(CCCCC2)C(=O)C12C=CC(C)CC2 (centres undefined)	> 100	> 100	> 100	> 100	> 100	> 100	> 100	> 100	–	–	–	–	–	–	–	–	–	–	–	–
NC(=O)c1ccc(I)c([N+](=O)[O-])c1	> 100	> 57.4	> 100	> 79.9	> 72.9	> 100	> 100	> 100	> 78700	> 69.3	> 100	32200	> 100	30.2	41	25.5	> 68.1	> 100000	> 75.9	45.3
Cc1cccc2c(=O)c3c(sc12)c(NCCCN)nc1ccccc13	5.64	2.47	2.79	–	3.09	3.09	2.93	3.01	1880	1.39	2.71	1180	1.24	–	1.61	1.56	3.03	1690	1.47	1.51
NCCCNCc1c2ccccc2c(CNCCCN)c2ccccc12	76.8	> 100	62.6	32.5	24.2	28.9	18.5	> 100	–	–	> 100	–	–	–	–	–	62.1	–	–	–
Oc1cccc2ccc(SSc3ccc4cccc(O)c4n3)nc12	77.4	37.3	39.9	> 100	30	37.5	37	30	–	–	29.7	–	–	–	–	–	41.4	–	–	–
Oc1ccc(O)c(-n2cccn2)c1	> 100	33.3	> 100	64.3	> 100	> 100	> 100	> 100	–	–	> 100	–	–	–	–	–	> 100	–	–	–
COc1cc(/C=C/C(=O)c2ccccc2O)ccc1OCCCOc1cc2c(cc1OC)C(=O)N1CCC[C@H]1C=N2	0.319	0.313	13.1	18.2	0.318	0.118	1.3	0.0511	47.9	0.071	0.818	40.3	0.0392	0.0297	0.0787	0.0354	1.16	35.9	0.0521	0.0226
COC(=O)[C@@H](C)C[C@H](Cc1ccc(F)cc1)NC(=O)c1csc([C@@H](C[C@H](C(C)C)N(C)C(=O)[C@@H](NC(=O)[C@H]2CCCCN2C)C2CC2)OC(C)=O)n1	6.87	–	> 25	> 25	> 25	1.49	> 25	> 25	598	1.98	> 25	–	0.559	0.0605	0.569	1.07	> 25	408	0.357	0.293
COc1nc(NC2OC(COC(C)=O)C(OC(C)=O)C(OC(C)=O)C2OC(C)=O)c(N=C(C)C(C)=O)c(=O)n1C (centres undefined)	> 100	> 100	> 100	> 100	> 100	> 100	> 100	> 100	–	–	> 100	–	–	–	–	–	> 100	–	–	–
O=C1NN(C(=O)c2ccccc2)C(c2ccc(Cl)c(Cl)c2)=C/C1=C\c1ccccc1[N+](=O)[O-]	6.21	> 6.75	> 6.75	> 6.75	> 6.75	> 6.75	> 6.75	> 6.75	2210	3.09	> 6.75	2270	3.44	1.9	4.53	1.96	> 6.75	2470	2.4	0.897
CSc1nc2c(nc(N)n2C2OC(CO)C(O)C(O)C2O)c(=O)[nH]1 (centres undefined)	> 100	> 100	> 100	> 100	> 100	> 100	> 100	> 100	–	–	> 100	–	–	–	–	–	–	–	–	–
C[N+]1(CCNP(=S)(NCC[N+]2(C)Cc3c(ccc4c3OCO4)C3C2c2cc4c(cc2C[C@@H]3O)OCO4)NCC[N+]2(C)Cc3c(ccc4c3OCO4)C3C2c2cc4c(cc2C[C@@H]3O)OCO4)Cc2c(ccc3c2OCO3)C2C1c1cc3c(cc1C[C@H]2O)OCO3 (some centres undefined)	–	69.5	–	–	–	–	–	–	1540	4.16	–	–	7.52	2.32	2.09	–	< 0.00191	1990	3.84	1.99
CCC(CO)Nc1nc(NCc2ccccc2)c2n[nH]c(C(C)C)c2n1 (centres undefined)	24.4	16.2	31.8	34.4	27.4	26.1	31.7	25.3	11600	4.42	16.9	3000	13.9	5.96	13	13.4	36	12700	14.1	11.4
C/C(=N\NC(=O)c1ccccc1O)c1c(O)cc(C)oc1=O	> 100	–	> 100	> 100	> 100	> 100	> 100	> 100	–	–	> 100	–	–	–	–	–	> 100	–	–	–
C/C(=N\N)C(CN1CCOCC1)C(c1ccccc1)c1c(O)c2ccccc2oc1=O (centres undefined)	> 100	> 100	> 100	> 100	> 100	> 100	> 100	> 100	–	–	> 100	–	–	–	–	–	> 100	–	–	–
Cc1ccc(S(=O)(=O)NC(Cc2ccccc2)C(=O)CCl)cc1 (centres undefined)	31.7	–	31	> 100	27.8	30.4	25.3	29.7	–	–	30.1	–	–	–	–	–	31.2	–	–	–
O=C1CC=C2C3CC4N(CCC45c4ccccc4N1C25)C/C3=C\CO (centres undefined)	> 100	> 100	–	> 100	> 100	> 100	> 100	> 100	–	–	> 100	–	–	–	–	–	> 100	–	–	–

SMILES	TGI [1] [µM]	TGI [2] [µM]	TGI [3] [µM]	TGI [4] [µM]	TGI [5] [µM]	TGI [6] [µM]	TGI [7] [µM]	TGI [8] [µM]	GI50 [1] [nM]	GI50 [9] [µM]	TGI [9] [µM]	GI50 [2] [nM]	GI50 [3] [µM]	GI50 [4] [µM]	GI50 [5] [µM]	GI50 [10] [µM]	TGI [10] [µM]	GI50 [6] [nM]	GI50 [7] [µM]	GI50 [8] [µM]
O=c1cc(-c2ccccc2)oc2c(O)c(O)ccc12	> 100	61.2	> 100	> 100	60.2	> 100	> 100	> 100	21500	5.69	> 100	7180	7.08	6.08	17.4	22	> 100	14600	12.2	7.72
COc1ccc2c(c1)/C(=C\c1c(-c3ccccc3)nc3sccn13)C(=O)N2	5.11	0.37	14.9	> 41.9	97.1	20.5	> 26.6	27.9	630	1.23	14.7	35.7	2.42	3.98	39.7	5.13	40.4	8230	9.57	5.88
C=C(C)[C@@H]1C/C=C(/COC(C)=O)CC[C@H]2O[C@@]2(C)CC/C=C(\C)CC1	> 100	> 100	> 100	45.1	> 100	–	> 100	> 100	> 100000	> 100	> 100	> 100000	> 100	21.4	> 100	> 100	> 100	–	> 100	> 100
CC(=O)O[C@H]1CC[C@@]2(C)C(=CC[C@H]3C(CC#N)[C@@](C)(C#N)CCC32)C1 (some centres undefined)	> 100	–	> 100	> 100	> 100	> 100	> 100	> 100	–	–	> 100	–	–	–	–	–	> 100	–	–	–
CC(=O)NNc1ncc(C(=O)/C=C/c2ccccc2C)s1	> 100	> 100	> 100	> 100	> 100	> 100	–	> 100	–	–	> 100	–	–	–	–	–	> 100	–	–	–
COc1ccc2c(c1)c1ccc3c(c1n2C)C(=O)C=CC3=O	53.5	18.6	66.5	4.89	18.8	28	15.6	36	–	–	14.9	–	–	–	–	–	35	–	–	–
COc1cccc(/C=C2\N=C(Cl)OC2=O)c1O	> 100	> 100	> 100	> 100	> 100	> 100	> 100	> 100	–	–	> 100	–	–	–	–	–	> 100	–	–	–
C=C[C@@H]1CCC/C=C/[C@@H]2C[C@H](O)C[C@H]2[C@H](O)/C=C/C(=O)O1	0.763	> 50.3	> 100	> 100	1.06	> 100	> 100	> 100	261	1.03	> 100	1890	1.33	3.18	0.274	0.664	> 100	650	1.53	0.941
O=C(Nc1ccc(Cl)cc1)c1cc(NCc2cc(O)ccc2O)ccc1O	47.1	18.2	51.7	8.53	16.8	4.16	22.6	13.4	17100	3.37	15.1	4090	22	2.65	4.34	4.77	19	1730	7.47	3.96
CCCCCCCCCCNC(=S)OC	> 100	> 100	> 100	> 100	> 100	> 100	> 100	> 100	–	–	> 100	–	–	–	–	–	–	–	–	–
Cn1cnc(SC2=CC(=O)C=C3S[C@H]4C[C@@]23c2c(c(O)c3c5c2=NCCC=5C=N3)N4)c1CC(N)C(=O)O (some centres undefined)	32.7	33.3	–	> 87	5.04	30.8	19.1	32	18100	15.6	29.1	18700	–	–	2.37	19.4	33.6	16600	7.26	18.1
O=C(NC1CCCCC1)NC12CC3CC(CC(F)(C3)C1)C2	> 100	–	> 100	> 100	> 100	> 100	–	> 100	–	–	> 100	–	–	–	–	–	> 100	–	–	–
O=C(N/C(=C\c1cccc([N+](=O)[O-])c1)c1nc2c3c(ccc2[nH]1)C(=O)c1ccccc1C3=O)c1ccccc1	> 100	> 100	> 100	–	> 100	> 100	> 100	> 100	–	–	> 100	–	–	–	–	–	90.4	–	–	–
COc1ccc2cc(C(=O)N3CCC([C@@H](C)C(=O)NCc4ccc5c(c4)OCO5)CC3)[nH]c2c1	> 100	–	> 100	> 100	> 100	> 100	> 100	> 100	> 100000	48.1	> 100	–	45.9	79.4	> 100	> 100	> 100	> 100000	> 100	> 100
Nc1ccc(C(=O)CC2(O)C(=O)Nc3ccccc32)cc1 (centres undefined)	> 100	> 100	–	> 100	> 100	> 100	> 100	–	–	–	> 100	–	–	–	–	–	> 100	–	–	–
CN1CCN(c2ccncc2S(=O)(=O)N2CCN(C)CC2)CC1	> 100	> 100	> 100	> 100	> 100	> 100	–	> 100	–	–	> 100	–	–	–	–	–	> 100	–	–	–
